How the values were obtained:
[1] = system: circΔP3 (circ∆L3) (RNA, riboswitch) GAUGUCAGUAACCUUCCCUCCAAGGUCGUCCCAUACCGUUCGCGGUAUAAAAACACAUUGCAGUUGGUAGUCUGCAAGCAUC; assay: ligand fluorescence titration with RNA; conditions: 100 mM K+, 5 mM Mg2+; 20 mM Mops pH 7.0, 10 μM EDTA, 50 nM harmine; biphasic two-site Hill fit, site not stated; nearly identical to wt
[2] = system: yjdF wt aptamer domain (Staphylococcus aureus) (RNA, riboswitch) UAGAAGUGUAAAAACACAAUUGGGUUGGUAGUCCCAAUGCAGUUUUAAAACUGUCAGUAACCUUCCUCCUCGGGUUGUCCGUCAUUUCUA; assay: ribosome filter binding (ligand-dependent); conditions: 100 mM NH4+, 5 mM Mg2+; 20 mM Hepes pH 7.0, 0.5 mM spermine; indirect
[3] = system: yjdF wt aptamer domain (Streptococcus ratti) (RNA, riboswitch) GGUAUAAAAACACAUUGCAGUUGGUAGUCUGCAAGCAUCAUCAGAUGUCAGUAACCUUCCCUCCAAGGUCGUCCCAUACC; assay: ligand fluorescence titration with RNA; conditions: 100 mM K+, 5 mM Mg2+; 20 mM Mops pH 7.0, 10 μM EDTA, 50 nM harmine; biphasic two-site Hill fit, site not stated
[4] = system: yjdF TLC (T-loop chimera, Streptococcus ratti) (RNA, riboswitch) GGUAUAAAAACACAUUGCAGUUGGUAGUCUGCAAGCAUCAUCAGAUGUCAGUAACCGGUUCGAAUCCGGUCGUCCCAUACC; assay: ligand fluorescence titration with RNA; conditions: 100 mM K+, 5 mM Mg2+; 20 mM Mops pH 7.0, 10 μM EDTA, 50 nM harmine; biphasic two-site Hill fit, site not stated; nearly identical to wt
[5] = system: yjdF wt aptamer domain (Enterococcus pallens) (RNA, riboswitch) CGAGCAUAAAAACACGAGGCGGUUGGUAGUCCGCCGCAUGAAAAUGUCAGUAGCCUUCCCUCCCGGGUCGUCCAUUGCUCG; assay: SEC (ligand-dependent folding); conditions: 100 mM K+, 5 mM Mg2+; 20 mM Mops pH 7.0, 10 μM EDTA; 60 nM chelerythrine in running buffer; indirect
[6] = system: yjdF wt aptamer domain (Staphylococcus aureus) (RNA, riboswitch) UAGAAGUGUAAAAACACAAUUGGGUUGGUAGUCCCAAUGCAGUUUUAAAACUGUCAGUAACCUUCCUCCUCGGGUUGUCCGUCAUUUCUA; assay: SAXS; ribosome filter binding (ligand-dependent); conditions: 100 mM K+, 2.5 mM Mg2+ (SAXS); 20 mM Mops pH 7.0 (SAXS)
[7] = system: yjdF wt aptamer domain (Streptococcus ratti) (RNA, riboswitch) GGUAUAAAAACACAUUGCAGUUGGUAGUCUGCAAGCAUCAUCAGAUGUCAGUAACCUUCCCUCCAAGGUCGUCCCAUACC; assay: ligand fluorescence emission (10-fold increase, 25 nm shift); conditions: 100 mM K+, 5 mM Mg2+; 20 mM Mops pH 7.0, 10 μM EDTA, 50 nM ligand, 20 °C
[8] = system: yjdF wt aptamer domain (Streptococcus ratti) (RNA, riboswitch) GGUAUAAAAACACAUUGCAGUUGGUAGUCUGCAAGCAUCAUCAGAUGUCAGUAACCUUCCCUCCAAGGUCGUCCCAUACC; assay: SHAPE probing (protection of A4, A5); conditions: 150 mM K+, 3 mM Mg2+; 20 mM MOPS-KOH pH 7.0, 10 μM EDTA, 2.5 μM ligand, 21 °C
[9] = system: yjdF wt aptamer domain (Streptococcus ratti) (RNA, riboswitch) GGUAUAAAAACACAUUGCAGUUGGUAGUCUGCAAGCAUCAUCAGAUGUCAGUAACCUUCCCUCCAAGGUCGUCCCAUACC; assay: ligand fluorescence emission (10-fold increase); conditions: 100 mM K+, 5 mM Mg2+; 20 mM Mops pH 7.0, 10 μM EDTA, 50 nM ligand, 20 °C

Row | binding [1] | binding [2] | Kd [3] | binding [4] | binding [5] | binding [6] | binding [7] | binding [8] | binding [9] | SMILES
1 | yes | yes | 230 ± 30 nM | yes |  |  |  |  |  | COc1ccc2c(c1)[nH]c1c(C)nccc12
2 |  |  |  |  | yes | yes | yes | yes |  | COc1ccc2c(c[n+](C)c3c4cc5c(cc4ccc23)OCO5)c1OC
3 |  |  |  |  |  |  |  | yes | yes | C[n+]1cc2c3c(ccc2c2ccc4cc5c(cc4c21)OCO5)OCO3
